Measurements reported in US20200085776A1, “Methods of Reducing C-Reactive Protein and/or Treating Cardiovascular Disease” (CARDAX, INC., priority 2018, published 2020).

Key:
Triglycerides = test: Fasting lipid panel: triglycerides, CHASE clinical study; format: in vivo, human; conditions: for Triglycerides V2 to V6 % Change Max / Triglycerides V2 to V6 % Change Mean (SD) / Triglycerides V2 to V6 % Change Median / Triglycerides V2 to V6 % Change Min / Triglycerides V2 to V6 Change Max / Triglycerides V2 to V6 Change Mean (SD) / Triglycerides V2 to V6 Change Median / Triglycerides V2 to V6 Change Min: baseline to Week 12
Excerpt: (§1) Blood samples shall be obtained under fasted conditions for a lipid panel at V2, V4, V6, V7, and V8. This panel shall include total cholesterol, LDL-C, VLDL-C, HDL-C, and triglycerides. A minimum eight-hour fast (water allowed) is required for the lipid panel.
(§2) Fasting lipid profiles and fasting chemistry panels may be obtained within the visit time window on a day separate from the scheduled office visit, within two days before or after the other study procedures. A minimum of eight hours fasted (water allowed ad lib) is required.
(§3) Table 7M provides the changes in lipid levels (mg/dL) (V2 to V6) for subjects.

Cholesterol = test: Fasting lipid panel: total cholesterol, CHASE clinical study; format: in vivo, human; conditions: for Cholesterol V2 to V6 % Change Max / Cholesterol V2 to V6 % Change Mean (SD) / Cholesterol V2 to V6 % Change Median / Cholesterol V2 to V6 % Change Min / Cholesterol V2 to V6 Change Max / Cholesterol V2 to V6 Change Mean (SD) / Cholesterol V2 to V6 Change Median / Cholesterol V2 to V6 Change Min: baseline to Week 12
Excerpt: as §1, §2, §3

[1] = Group X 12 mg BID, V2 baseline pre-dose, all subjects
[2] = Group X 12 mg BID, V2 baseline pre-dose, subjects with hyperlipidemia
[3] = Group X 12 mg BID, V6 Week 12, all subjects
[4] = Group X 12 mg BID, V6 Week 12, subjects with hyperlipidemia
[5] = Group X 12 mg BID, all subjects
[6] = Group X 12 mg BID, subjects with hyperlipidemia
[7] = Group Z 48 mg BID, V2 baseline pre-dose, all subjects
[8] = Group Z 48 mg BID, V2 baseline pre-dose, subjects with hyperlipidemia
[9] = Group Z 48 mg BID, V6 Week 12, all subjects
[10] = Group Z 48 mg BID, V6 Week 12, subjects with hyperlipidemia
[11] = Group Z 48 mg BID, all subjects
[12] = Group Z 48 mg BID, subjects with hyperlipidemia

CC1=C(/C=C/C(C)=C/C=C/C(C)=C/C=C/C=C(C)/C=C/C=C(C)/C=C/C2=C(C)C(=O)C(O)CC2(C)C)C(C)(C)CC(O)C1=O (centres unmarked) [Astaxanthin, astaxanthin]
Triglycerides Max (Triglycerides; [1]): 482.0 mg/dL | Triglycerides Mean (SD) (Triglycerides; [1]): 201.9 (122.2) mg/dL | Triglycerides Median (Triglycerides; [1]): 177.0 mg/dL | Triglycerides Min (Triglycerides; [1]): 59.00 mg/dL | Triglycerides Max (Triglycerides; [2]): 482.0 mg/dL | Triglycerides Mean (SD) (Triglycerides; [2]): 235.8 (126.1) mg/dL | Triglycerides Median (Triglycerides; [2]): 253.5 mg/dL | Triglycerides Min (Triglycerides; [2]): 80.00 mg/dL | Triglycerides Max (Triglycerides; [3]): 420.0 mg/dL | Triglycerides Mean (SD) (Triglycerides; [3]): 177.4 (109.8) mg/dL | Triglycerides Median (Triglycerides; [3]): 131.0 mg/dL | Triglycerides Min (Triglycerides; [3]): 70.00 mg/dL | Triglycerides Max (Triglycerides; [4]): 420.0 mg/dL | Triglycerides Mean (SD) (Triglycerides; [4]): 202.3 (120.2) mg/dL | Triglycerides Median (Triglycerides; [4]): 211.5 mg/dL | Triglycerides Min (Triglycerides; [4]): 70.00 mg/dL | Triglycerides V2 to V6 % Change Max (Triglycerides; [5]): 42.37% | Triglycerides V2 to V6 % Change Mean (SD) (Triglycerides; [5]): −7.10 (27.88) % | Triglycerides V2 to V6 % Change Median (Triglycerides; [5]): −12.9% | Triglycerides V2 to V6 % Change Min (Triglycerides; [5]): −61.5% | Triglycerides V2 to V6 Change Max (Triglycerides; [5]): 56.00 mg/dL | Triglycerides V2 to V6 Change Mean (SD) (Triglycerides; [5]): −24.6 (59.47) mg/dL | Triglycerides V2 to V6 Change Median (Triglycerides; [5]): -26.0 mg/dL | Triglycerides V2 to V6 Change Min (Triglycerides; [5]): -166 mg/dL | Triglycerides V2 to V6 % Change Max (Triglycerides; [6]): 22.76% | Triglycerides V2 to V6 % Change Mean (SD) (Triglycerides; [6]): −12.9 (26.00) % | Triglycerides V2 to V6 % Change Median (Triglycerides; [6]): −14.5% | Triglycerides V2 to V6 % Change Min (Triglycerides; [6]): −61.5% | Triglycerides V2 to V6 Change Max (Triglycerides; [6]): 56.00 mg/dL | Triglycerides V2 to V6 Change Mean (SD) (Triglycerides; [6]): −33.5 (66.92) mg/dL | Triglycerides V2 to V6 Change Median (Triglycerides; [6]): -34.0 mg/dL | Triglycerides V2 to V6 Change Min (Triglycerides; [6]): -166 mg/dL | Triglycerides Max (Triglycerides; [7]): 1677 mg/dL | Triglycerides Mean (SD) (Triglycerides; [7]): 283.5 (368.2) mg/dL | Triglycerides Median (Triglycerides; [7]): 175.0 mg/dL | Triglycerides Min (Triglycerides; [7]): 75.00 mg/dL | Triglycerides Max (Triglycerides; [8]): 1677 mg/dL | Triglycerides Mean (SD) (Triglycerides; [8]): 321.9 (407.8) mg/dL | Triglycerides Median (Triglycerides; [8]): 182.0 mg/dL | Triglycerides Min (Triglycerides; [8]): 82.00 mg/dL | Triglycerides Max (Triglycerides; [9]): 650.0 mg/dL | Triglycerides Mean (SD) (Triglycerides; [9]): 192.2 (155.1) mg/dL | Triglycerides Median (Triglycerides; [9]): 145.5 mg/dL | Triglycerides Min (Triglycerides; [9]): 63.00 mg/dL | Triglycerides Max (Triglycerides; [10]): 650.0 mg/dL | Triglycerides Mean (SD) (Triglycerides; [10]): 213.1 (170.3) mg/dL | Triglycerides Median (Triglycerides; [10]): 149.5 mg/dL | Triglycerides Min (Triglycerides; [10]): 76.00 mg/dL | Triglycerides V2 to V6 % Change Max (Triglycerides; [11]): 115.2% | Triglycerides V2 to V6 % Change Mean (SD) (Triglycerides; [11]): −0.96 (43.74) % | Triglycerides V2 to V6 % Change Median (Triglycerides; [11]): −16.2% | Triglycerides V2 to V6 % Change Min (Triglycerides; [11]): −49.5% | Triglycerides V2 to V6 Change Max (Triglycerides; [11]): 348.0 mg/dL | Triglycerides V2 to V6 Change Mean (SD) (Triglycerides; [11]): −9.89 (109.9) mg/dL | Triglycerides V2 to V6 Change Median (Triglycerides; [11]): -24.5 mg/dL | Triglycerides V2 to V6 Change Min (Triglycerides; [11]): -178 mg/dL | Triglycerides V2 to V6 % Change Max (Triglycerides; [12]): 115.2% | Triglycerides V2 to V6 % Change Mean (SD) (Triglycerides; [12]): 0.07 (48.86) % | Triglycerides V2 to V6 % Change Median (Triglycerides; [12]): −21.5% | Triglycerides V2 to V6 % Change Min (Triglycerides; [12]): −49.5% | Triglycerides V2 to V6 Change Max (Triglycerides; [12]): 348.0 mg/dL | Triglycerides V2 to V6 Change Mean (SD) (Triglycerides; [12]): −12.0 (124.4) mg/dL | Triglycerides V2 to V6 Change Median (Triglycerides; [12]): -29.0 mg/dL | Triglycerides V2 to V6 Change Min (Triglycerides; [12]): -178 mg/dL | Cholesterol Max (Cholesterol; [1]): 342.0 mg/dL | Cholesterol Mean (SD) (Cholesterol; [1]): 192.0 (65.49) mg/dL | Cholesterol Median (Cholesterol; [1]): 180.0 mg/dL | Cholesterol Min (Cholesterol; [1]): 113. mg/dL | Cholesterol Max (Cholesterol; [2]): 342.0 mg/dL | Cholesterol Mean (SD) (Cholesterol; [2]): 184.5 (73.91) mg/dL | Cholesterol Median (Cholesterol; [2]): 164.0 mg/dL | Cholesterol Min (Cholesterol; [2]): 113.0 mg/dL | Cholesterol Max (Cholesterol; [3]): 339.0 mg/dL | Cholesterol Mean (SD) (Cholesterol; [3]): 182.6 (70.21) mg/dL | Cholesterol Median (Cholesterol; [3]): 163.0 mg/dL | Cholesterol Min (Cholesterol; [3]): 117.0 mg/dL | Cholesterol Max (Cholesterol; [4]): 339.0 mg/dL | Cholesterol Mean (SD) (Cholesterol; [4]): 170.3 (74.95) mg/dL | Cholesterol Median (Cholesterol; [4]): 137.5 mg/dL | Cholesterol Min (Cholesterol; [4]): 117.0 mg/dL | Cholesterol V2 to V6 % Change Max (Cholesterol; [5]): 6.67% | Cholesterol V2 to V6 % Change Mean (SD) (Cholesterol; [5]): −5.34 (10.55) % | Cholesterol V2 to V6 % Change Median (Cholesterol; [5]): −4.90% | Cholesterol V2 to V6 % Change Min (Cholesterol; [5]): −25.0% | Cholesterol V2 to V6 Change Max (Cholesterol; [5]): 17.00 mg/dL | Cholesterol V2 to V6 Change Mean (SD) (Cholesterol; [5]): −9.45 (18.08) mg/dL | Cholesterol V2 to V6 Change Median (Cholesterol; [5]): -7.00 mg/dL | Cholesterol V2 to V6 Change Min (Cholesterol; [5]): -39.0 mg/dL | Cholesterol V2 to V6 % Change Max (Cholesterol; [6]): 6.20% | Cholesterol V2 to V6 % Change Mean (SD) (Cholesterol; [6]): −7.65 (11.10) % | Cholesterol V2 to V6 % Change Median (Cholesterol; [6]): −6.92% | Cholesterol V2 to V6 % Change Min (Cholesterol; [6]): −25.0% | Cholesterol V2 to V6 Change Max (Cholesterol; [6]): 8.00 mg/dL | Cholesterol V2 to V6 Change Mean (SD) (Cholesterol; [6]): −14.3 (17.60) mg/dL | Cholesterol V2 to V6 Change Median (Cholesterol; [6]): -14.0 mg/dL | Cholesterol V2 to V6 Change Min (Cholesterol; [6]): -39.0 mg/dL | Cholesterol Max (Cholesterol; [7]): 316.0 mg/dL | Cholesterol Mean (SD) (Cholesterol; [7]): 195.1 (57.82) mg/dL | Cholesterol Median (Cholesterol; [7]): 190.0 mg/dL | Cholesterol Min (Cholesterol; [7]): 121.0 mg/dL | Cholesterol Max (Cholesterol; [8]): 316.0 mg/dL | Cholesterol Mean (SD) (Cholesterol; [8]): 189.7 (58.32) mg/dL | Cholesterol Median (Cholesterol; [8]): 173.0 mg/dL | Cholesterol Min (Cholesterol; [8]): 121.0 mg/dL | Cholesterol Max (Cholesterol; [9]): 284.0 mg/dL | Cholesterol Mean (SD) (Cholesterol; [9]): 169.7 (45.52) mg/dL | Cholesterol Median (Cholesterol; [9]): 160.5 mg/dL | Cholesterol Min (Cholesterol; [9]): 104.0 mg/dL | Cholesterol Max (Cholesterol; [10]): 284.0 mg/dL | Cholesterol Mean (SD) (Cholesterol; [10]): 161.9 (46.52) mg/dL | Cholesterol Median (Cholesterol; [10]): 151.0 mg/dL | Cholesterol Min (Cholesterol; [10]): 104.0 mg/dL | Cholesterol V2 to V6 % Change Max (Cholesterol; [11]): 15.86% | Cholesterol V2 to V6 % Change Mean (SD) (Cholesterol; [11]): −8.52 (14.73) % | Cholesterol V2 to V6 % Change Median (Cholesterol; [11]): −8.29% | Cholesterol V2 to V6 % Change Min (Cholesterol; [11]): −38.0% | Cholesterol V2 to V6 Change Max (Cholesterol; [11]): 32.00 mg/dL | Cholesterol V2 to V6 Change Mean (SD) (Cholesterol; [11]): −18.6 (31.99) mg/dL | Cholesterol V2 to V6 Change Median (Cholesterol; [11]): -13.5 mg/dL | Cholesterol V2 to V6 Change Min (Cholesterol; [11]): -92.0 mg/dL | Cholesterol V2 to V6 % Change Max (Cholesterol; [12]): 15.86% | Cholesterol V2 to V6 % Change Mean (SD) (Cholesterol; [12]): −9.11 (16.06) % | Cholesterol V2 to V6 % Change Median (Cholesterol; [12]): −8.48% | Cholesterol V2 to V6 % Change Min (Cholesterol; [12]): −38.0% | Cholesterol V2 to V6 Change Max (Cholesterol; [12]): 32.00 mg/dL | Cholesterol V2 to V6 Change Mean (SD) (Cholesterol; [12]): −18.8 (33.97) mg/dL | Cholesterol V2 to V6 Change Median (Cholesterol; [12]): -13.5 mg/dL | Cholesterol V2 to V6 Change Min (Cholesterol; [12]): -92.0 mg/dL
